Experimental data as given in patent US20250236627A1, “CERTAIN OCTAHYDROFURO[3,4- B]PYRAZINES AS GLP-1 RECEPTOR MODULATORS” (ASTRAZENECA AB, priority 2021, published 2025).

Experiments:
human GLP-1R receptor = biological target: T1, human GLP-1R receptor (Homo sapiens, UniProt P43220, L260F); test: CHOK1 GLP-1R cAMP Assay; assay type: cell-based; details: CHO-K1 cell line stably expressing human GLP-1R; HTRF cAMP detection
T1 construct: expressed in transfected cells; host or cells: CHO-K1 (ATCC CCL-61)
T1 sequence (P43220 24-463 L260F): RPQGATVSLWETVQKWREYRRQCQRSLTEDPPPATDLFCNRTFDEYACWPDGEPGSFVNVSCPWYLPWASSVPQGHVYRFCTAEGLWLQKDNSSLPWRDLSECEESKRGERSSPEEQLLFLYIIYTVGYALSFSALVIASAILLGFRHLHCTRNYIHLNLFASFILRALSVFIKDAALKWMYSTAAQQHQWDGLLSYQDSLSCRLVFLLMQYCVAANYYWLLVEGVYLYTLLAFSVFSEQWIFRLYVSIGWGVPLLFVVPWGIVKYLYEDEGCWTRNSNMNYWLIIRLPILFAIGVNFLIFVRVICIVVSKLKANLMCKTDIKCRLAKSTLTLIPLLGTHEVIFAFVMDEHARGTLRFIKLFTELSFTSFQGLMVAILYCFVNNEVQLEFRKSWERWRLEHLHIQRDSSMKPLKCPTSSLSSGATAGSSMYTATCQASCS
Description: A cell line stably expressing the human GLP-1R receptor (NM_002062.5, including the naturally-occurring variant Leu260Phe) in a CHO-K1 (ATCC® CCL-61™) was used for assay.
GLP-1 Receptor mediated agonist activity was determined in a cell based assay measuring cAMP levels in cells using Homogeneous Time-Resolved Fluorescence (HTRF) cAMP detection kit (CisBio catalog #62AM4PEC, cAMP Gs Dynamic range kit). The cAMP detection method is based on a competitive immunoassay, in which cAMP produced by the cells and cAMP labeled with the dye d2 compete for binding to a Europium-Cryptate-labeled anti-cAMP antibody. The specific HTRF signal is inversely proportional to the concentration of cAMP.
Compounds were added to individual well in 384 well-assay plates (Greiner #784076) using an Echo (LabCyte) dispenser from 10 mM stocks. Varying concentration of compounds were added to wells, and dimethyl sulfoxide was used to normalize each well to a volume of 100 nanoliter. A dose response curve of GLP1(7-36)NH2 (Bachem H-6795) was included in each run. 5 μL of cAMP concentration response standards are applied in specified wells in the assay plates.
Cryo-preserved cells are thawed and resuspended in assay buffer pre-heated to 37° C. (20 mM 2-[4-(2-hydroxyethyl)piperazin-1-yl]ethanesulfonic acid (HEPES) pH 7.4, lx Hank's Balanced Salt Solution (HBSS, Life Technologies #14065) supplemented with 0.1% (w/v) bovine serum albumin (Sigma, A-7030)). Cells were centrifuged at 250*g for 5 min at room temperature, and resuspend in room tempered assay buffer to a final density of 0.16*10^6 cell/mL, to deliver 800 cells/well. 5 μL of assay buffer with 1 mM 3-isobutyl-1-methylxanthin (IBMX; Sigma cat I-7018) was dispensed per well in assay plates using a multidrop combi (Thermo Scientific) subsequently 5 μL of cell suspension was distributed to relevant wells in the assay using a multidrop dispenser. Assay plates were incubated 20 min at room temperature.
Detection reagents, Europium-Cryptate-labeled anti-cAMP antibody and cAMP labeled with the dye d2, are diluted in lysis buffer, provided by the manufacturer. 5 μL of each detection reagent is supplemented to each assay well using a multidrop dispenser. Assay plates are incubated in the dark for at least one hour. The HTRF signal is measured using the HTRF module (excitation: 337 nm, emission A: 665 nm and emission B: 620 nm) in Pherastar FSX (BMG Labtech).
Raw data were converted to pM cAMP using the cAMP standard curve included in each run. Converted data were further analyzed in Genedata Screener (Genedata) and EC50 determinations were made from agonist dose-response curves analyzed with a curve fitting program using a 4-parameter logistic dose response equation (Equation y=A+((B−A)/1+((C/x)^D))) where A is no stimulation, B is full stimulation, C is the EC50 and D is the Hill slope). The percent effect was determined relative to a saturating concentration of a full GLP-1R agonist (GLP1(7-36)NH2 has 100% effect in this assay setup).

[1] = biological target: T2, endogenous human glucagon-like peptide 1 receptor (GLP-1R) (Homo sapiens, UniProt P43220); test: EndoC cAMP Accumulation Assay; assay type: cell-based; details: EndoC-βH1 human pancreatic β cell line; HTRF cAMP assay
T2 construct: endogenous human glucagon-like peptide 1 receptor (GLP-1R) in a pancreatic insulinoma cell line; host or cells: EndoC-βH1 human pancreatic β cell line
T2 sequence (P43220 24-463): as the sequence (P43220 24-463 L260F) above, with F237L counted along it
Description: EndoC cAMP Accumulation Assay
A HTRF (Homogeneous Time-Resolved Fluorescence) cAMP assay (cAMP Gs dynamic kit; CisoBio Cat #62AM4PEJ) was used to identify agonists of the endogenous human glucagon-like peptide 1 receptor (GLP-1R) in a pancreatic insulinoma cell line (EndoC-βH1). […] EndoC-βH1 cells have detectable GLP-1R mRNA as detected by qPCR^1. […] The EndoC-βH1 cell line is a valid model of human beta cells and applicable for screenings to identify novel drug target candidates (Mol. Metab., 2018, 8, 144-157). CisBio HTRF cAMP kits are based on a competitive immunoassay using cryptate-labelled anti-cAMP antibody and d2-labeled cAMP. The detection kit is intended for the direct quantitative determination of cAMP. The specific signal (i.e. energy transfer) is inversely proportional to the concentration of cAMP in the standard or sample. Test compounds (10 mM in DMSO) were diluted into assay buffer (HBSS (Sigma #H8264) supplemented with 25 mM HEPES (Gibco #15630, pH 7.4), 0.1% BSA (Sigma #A3059) and 0.5 mM IBMX (Sigma #I7018) included fresh on the day of the assay) into 96 well U-bottom plates (Greiner #650201). Diluted compounds were transferred to ECHO source PP plates (Labcyte #P-05525) and dose response curves were dispensed acoustically using ECHO 550 into black shallow-well u-bottom 384-well HTRF Assay Plates (Corning 4514).
Cryovials of EndoC-H1 (supplied at 1×10e^7 cells/vial) were used directly for screening. The cryovials and were removed from LN2 and thawed rapidly in a 37° C. water bath. The cells were resuspended in assay buffer and centrifuged at 300 g for 5 min. Cells were resuspended in assay buffer at the appropriate concentration, typically at 12e5 cells per mL (3000 cells per well, dependent on cell batch) and 2.5 μL diluted cells were added to all wells of destination plate by Multidrop combi reagent dispenser (Thermofisher). The plates were incubated at room temperature for 30 min. The assay was stopped by adding 2.5 μL anti-cAMP cryptate solution to all wells and 2.5 μL cAMP-d2 solution (both diluted 1:20 in lysis buffer) to columns 1-22 by Combi drop. A volume of 2.5 μL cAMP-d2 solution was added to wells E23 to P24 and 2.5 μL lysis buffer added to wells A23 to D24 by multichannel pipette. The plates were incubated at room temperature for 1 hr and read on an Envision plate reader using excitation wavelength of 320 nm and emission of 590 nm and 660 nm.
Raw data from Envision is converted to % DeltaF according to the manufacturer's instructions. Dose response curves are analysed via 4-Parameter Logistical Analysis and assay plate Z′ values obtained. Samples are graphed as percentage (%) activation plots compared to GIP (1-42, Bachem H-5645) with assay window defined by negative control as basal cell cAMP levels and positive control are defined by maximum GIP (82.5 nM) signal. GLP1 (7-36 amide, Bachem H-6795) dose response curve was included on all plates.

Structure (SMILES) | EC50 (human GLP-1R receptor) [µM] | EC50 [1] [µM]
C[C@]1(c2ccc(Cl)cn2)Oc2cccc(N3CCN(Cc4nc5ccc(C(=O)O)cc5n4CCn4cccn4)[C@H]4COC[C@H]43)c2O1 (single isomer, unassigned) [Example 10] | 0.16 | 0.076
C[C@]1(c2ccc(Cl)cn2)Oc2cccc(N3CCN(Cc4nc5c(Cl)cc(C(=O)O)cc5n4C[C@@H]4CCO4)[C@H]4COC[C@H]43)c2O1 (single isomer, unassigned) [Example 14a, 4-Chloro-2-(((4aR*,7aS*)-4-((R*)-2-(5-chloropyridin-2-yl)-2-methylbenzo[d][1,3]dioxol-4-yl)hexahydrofuro[3,4-b]pyrazin-1(2H)-yl)methyl)-1-(((S)-oxetan-2-yl)methyl)-1H-benzo[d]imidazole-6-carboxylic acid] | 0.0015 | 0.0033
C[C@]1(c2ccc(Cl)cn2)Oc2cccc(N3CCN(Cc4nc5c(Cl)cc(C(=O)O)cc5n4C[C@@H]4CCO4)[C@H]4COC[C@H]43)c2O1 (single isomer, unassigned) [Example 14b, 4-Chloro-2-(((4aR*,7aS*)-4-((R*)-2-(5-chloropyridin-2-yl)-2-methylbenzo[d][1,3]dioxol-4-yl)hexahydrofuro[3,4-b]pyrazin-1(2H)-yl)methyl)-1-(((S)-oxetan-2-yl)methyl)-1H-benzo[d]imidazole-6-carboxylic acid] | 0.17 | 0.6
C[C@]1(c2ccc(Cl)cn2)Oc2cccc(N3CCN(Cc4nc5c(Cl)cc(C(=O)O)cc5n4C[C@@H]4CCO4)[C@H]4COC[C@H]43)c2O1 (single isomer, unassigned) [Example 14c, 4-Chloro-2-(((4aR*,7aS*)-4-((R*)-2-(5-chloropyridin-2-yl)-2-methylbenzo[d][1,3]dioxol-4-yl)hexahydrofuro[3,4-b]pyrazin-1(2H)-yl)methyl)-1-(((S)-oxetan-2-yl)methyl)-1H-benzo[d]imidazole-6-carboxylic acid] | 0.18 | 0.23
C[C@]1(c2ccc(Cl)cn2)Oc2cccc(N3CCN(Cc4nc5c(Cl)cc(C(=O)O)cc5n4C[C@@H]4CCO4)[C@H]4COC[C@H]43)c2O1 (single isomer, unassigned) [Example 14d, 4-Chloro-2-(((4aR*,7aS*)-4-((R*)-2-(5-chloropyridin-2-yl)-2-methylbenzo[d][1,3]dioxol-4-yl)hexahydrofuro[3,4-b]pyrazin-1(2H)-yl)methyl)-1-(((S)-oxetan-2-yl)methyl)-1H-benzo[d]imidazole-6-carboxylic acid] | 0.19 | 0.48

Continued, values first:

EC50 (human GLP-1R receptor) [µM] | EC50 [1] [µM] | Structure (SMILES)
0.57 | 1.1 | C[C@]1(c2ccc(Cl)cn2)Oc2cccc(N3CCN(Cc4nc5c(F)cc(C(=O)O)cc5n4C[C@@H]4CCO4)[C@H]4COC[C@H]43)c2O1 (single isomer, unassigned) [Example 9c, 2-((4aR*,7aS*)-4-((R*)-2-(5-Chloropyridin-2-yl)-2-methylbenzo[d][1,3]dioxol-4-yl)hexahydrofuro[3,4-b]pyrazin-1(2H)-yl)methyl)-4-fluoro-1-(((S)-oxetan-2-yl)methyl)-1H-benzo[d]imidazole-6-carboxylic acid]
0.096 | 0.035 | C[C@]1(c2ccc(Cl)cn2)Oc2cccc(N3CCN(Cc4nc5c(F)cc(C(=O)O)cc5n4CCn4cccn4)[C@H]4COC[C@H]43)c2O1 (single isomer, unassigned) [Example 11]
0.008 | 0.0076 | C[C@]1(c2ccc(Cl)cn2)Oc2cccc(N3CCN(Cc4nc5c(F)cc(C(=O)O)cc5n4C[C@@H]4CCCO4)[C@H]4COC[C@H]43)c2O1 (single isomer, unassigned) [Example 12a, 2-(((4aR*,7aS*)-4-((R*)-2-(5-Chloropyridin-2-yl)-2-methylbenzo[d][1,3]dioxol-4-yl)hexahydrofuro[3,4-b]pyrazin-1(2H)-yl)methyl)-4-fluoro-1-(((S)-tetrahydrofuran-2-yl)methyl)-1H-benzo[d]imidazole-6-carboxylic acid]
0.061 | 0.091 | C[C@]1(c2ccc(Cl)cn2)Oc2cccc(N3CCN(Cc4nc5c(F)cc(C(=O)O)cc5n4C[C@@H]4CCCO4)[C@H]4COC[C@H]43)c2O1 (single isomer, unassigned) [Example 12b, 2-(((4aR*,7aS*)-4-((R*)-2-(5-Chloropyridin-2-yl)-2-methylbenzo[d][1,3]dioxol-4-yl)hexahydrofuro[3,4-b]pyrazin-1(2H)-yl)methyl)-4-fluoro-1-(((S)-tetrahydrofuran-2-yl)methyl)-1H-benzo[d]imidazole-6-carboxylic acid]
0.055 | 0.013 | C[C@]1(c2ccc(Cl)cc2F)Oc2cccc(N3CCN(Cc4nc5c(F)cc(C(=O)O)cc5n4Cc4cccnc4)[C@H]4COC[C@H]43)c2O1 (single isomer, unassigned) [Example 13a]
0.68 | 0.29 | C[C@]1(c2ccc(Cl)cc2F)Oc2cccc(N3CCN(Cc4nc5c(F)cc(C(=O)O)cc5n4Cc4cccnc4)[C@H]4COC[C@H]43)c2O1 (single isomer, unassigned) [Example 13b]
0.071 | 0.12 | C[C@]1(c2ccc(Cl)cc2F)Oc2cccc(N3CCN(Cc4nc5c(Cl)cc(C(=O)O)cc5n4C[C@@H]4CCO4)[C@H]4COC[C@H]43)c2O1 (single isomer, unassigned) [Example 15b, 4-Chloro-2-(((4aR*,7aS*)-4-((R*)-2-(4-chloro-2-fluorophenyl)-2-methylbenzo[d][1,3]dioxol-4-yl)hexahydrofuro[3,4-b]pyrazin-1(2H)-yl)methyl)-1-(((S)-oxetan-2-yl)methyl)-1H-benzo[d]imidazole-6-carboxylic acid]
